# Data from patent US20200345701A1, “USE OF STATINS IN OVERCOMING RESISTANCE TO BETA-LACTAM ANTIBIOTICS IN BACTERIAL SPECIES SYNTHETIZING ISOPRENOIDS USING THE MEVALONATE SYNTHETIC PATHWAY” (CONSEJO SUPERIOR DE INVESTIGACIONES CIENTIFICAS (CSIC), priority 2017, published 2020).
# “Also recorded” adds a separate entry of the source.
# Key:
# S. aureus = experiment: Growth curves of S. aureus cultures at different ZA concentrations; assay type: cell-based, Staphylococcus aureus; conditions: ZA 50 μM; TSB medium, 36 h, 37° C.
# [1] = system: Staphylococcus aureus MRSA strain USA300; experiment: In vitro MRSA cell growth inhibition (bacterial count CFU/ml), statin or ZA with oxacillin; assay type: cell-based; conditions: for MRSA growth (CFU/ml) with oxacillin plus compound: combination with the β-lactam antibiotic oxacillin
# FloA membrane foci = FloA membrane foci count by fluorescence microscopy; assay type: cell-based, Staphylococcus aureus; conditions: ZA 50 μM
# Description: Cells from liquid cultures were washed in PBS and resuspended in 0.5 ml 4% paraformaldehyde (6 min, room temperature). Samples were washed twice and resuspended in 0.5 ml PBS. Images were acquired on a Leica DMI6000B microscope equipped with a CRT6000 illumination system, with a HCX PL APO oil immersion objective (100×1.47) and a color camera DFC630FX. Leica Application Suite Advanced Fluorescence
# Software was used for linear image processing. The YFP signal was detected (excitation filter 489 nm, emission filter 508 nm). Excitation times were 567 msec. Transmitted light images were taken with 55 msec excitation time.
# PBP2a = assay type: cell-based; conditions: ZA-treated MRSA cells; bands at ~80 kDa
# MRSA = assay type: cell-based, Staphylococcus aureus; conditions: β-lactam antibiotics; treated versus untreated MRSA
# FloA and PBP2a = FloA and PBP2a oligomerization by sucrose gradient centrifugation; conditions: membrane fraction of ZA-treated versus untreated cells
# Description: FloA oligomerization in S. aureus WT and Δcrt mutant and PBP2a oligomerization were analyzed in sucrose gradient assays. S. aureus cultures were harvested and cells crosslinked with 0.5 mM DSP (dithiobis(succinimidyl propionate)) before cell lysis and membrane fraction purification. Purified membrane fractions (200 μg) solubilized with 0.5% DDM were layered on a 5-40% linear sucrose gradient generated by a Biocomp gradient maker, then centrifuged (Beckman; 100,000 g, 16 h, 4° C.). Fractions (1 ml) were collected from the bottom of the gradient and proteins associated with each fraction were precipitated with 10% trichloroacetic acid (TCA). Protein fractions were dried and resuspended in PBS prior to immunoblot analyses.
# MRSA ΔfloA mutant [2] = experiment: β-lactam antibiotic sensitivity of MRSA ΔfloA mutant versus WT; assay type: cell-based, Staphylococcus aureus; conditions: antibiotic concentrations that typically inhibit MSSA growth
# MRSA ΔfloA mutant [3] = conditions: mice infected with ΔfloA mutant, 3×10^7 CFU; oxacillin 200 mg/kg/day; three days post-infection
# Description: (§1) Female BALB/c mice (8-10 weeks old, 16-19 g weight) were purchased (Charles River Laboratories), Mice were housed in polypropylene cages in standardized lighting conditions and had ad libitum access to food and water.
# (§2) The S. aureus strains were cultured on BHI medium (18 h, 37° C.). Cells were collected, washed three times with PBS and diluted to OD600 nm=0.05. Viable cell counts were determined by plating inoculum dilutions on TSB agar plates. For survival experiments, cohorts of 10 mice were infected with 150 μl of S. aureus cultures (3×10^7 cells) via intravenous injection. Each strain was used to infect one mouse cohort. Doses of oxacillin (200 mg/kg) alone or in combination with ZA (50 mg/Kg or 20 mg/Kg) were injected intraperitoneally (i.p.) daily for 1-4 days. […] The first dose was administered 30 min after the bacterial inoculation. Infections were allowed to progress until severe infection signs occurred or to a 3-day endpoint. Mice were sacrificed when they met the following criteria: 1) loss of at least 20% body weight, 2) loss of at least 15% body weight and ruffled fur, 3) loss of at least 10% body weight and hunched posture, or 4) 4 days post-infection.
# MRSA WT strain = experiment: Murine infection model, survival, WT strain; conditions: mice infected with WT, 3×10^7 CFU; oxacillin 200 mg/kg/day; three days post-infection
# Description: as §1, §2
# ΔMAR flotillin variant [4] = assay type: binding, Staphylococcus aureus
# ΔEA4 flotillin variant [5] = assay type: binding, Staphylococcus aureus
# ΔPHB flotillin variant [6] = assay type: binding, Staphylococcus aureus
# FloA (WT flotillin) = FloA (WT flotillin) (Staphylococcus aureus, UniProt Q99TS3); assay type: binding; conditions: purified WT FloA; sucrose gradient, FloA immunodetection in lipid fraction
# ΔMAR flotillin variant [7] = assay type: binding, Staphylococcus aureus; remark: listed apart in the source
# ΔEA4 flotillin variant [8] = assay type: binding, Staphylococcus aureus; remark: listed apart in the source
# ΔPHB flotillin variant [9] = assay type: binding, Staphylococcus aureus; remark: listed apart in the source
# Chain of FloA (WT flotillin) (Q99TS3 whole entry, looked up): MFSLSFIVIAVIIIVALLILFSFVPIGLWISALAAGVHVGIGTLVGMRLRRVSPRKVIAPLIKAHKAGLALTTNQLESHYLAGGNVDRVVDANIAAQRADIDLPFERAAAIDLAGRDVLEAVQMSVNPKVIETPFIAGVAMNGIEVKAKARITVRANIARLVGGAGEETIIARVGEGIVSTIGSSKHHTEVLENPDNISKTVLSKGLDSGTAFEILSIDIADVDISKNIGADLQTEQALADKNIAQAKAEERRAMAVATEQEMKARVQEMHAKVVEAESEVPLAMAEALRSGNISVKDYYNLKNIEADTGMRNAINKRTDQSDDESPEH
smiles,measurement,setting,value
"C=C(CC[C@]12O[C@H](C(=O)O)[C@@](O)(C(=O)O)[C@](C(=O)O)(O1)[C@H](OC(=O)/C=C/[C@@H](C)C[C@@H](C)CC)[C@H]2O)[C@@H](OC(C)=O)[C@H](C)Cc1ccccc1 [ZA, Zaragozic acid]",S. aureus growth,S. aureus,no growth defects; also recorded: did not affect
same,effect of increasing compound concentration on antibiotic effect of oxacillin,"[1]; MRSA cultures, combination with oxacillin",potentiated the antibiotic effect of oxacillin
same,MRSA growth (CFU/ml) with oxacillin plus compound,[1],inhibited
same,MRSA growth (CFU/ml) in the presence of compound alone,[1]; without oxacillin,unaltered
same,number of FloA membrane foci,FloA membrane foci,reduced
same,PBP2a oligomerization (BN-PAGE),PBP2a,deficient PBP2a oligomerization
same,antibiotic sensitivity profile of treated MRSA cultures,MRSA,resembled those of the ΔfloA mutant
same,oligomerization of flotillin and PBP2a (sucrose gradient),FloA and PBP2a,reduced oligomerization of flotillin and PBP2a
CC1(C)S[C@@H]2[C@H](NC(=O)[C@H](N)c3ccccc3)C(=O)N2[C@H]1C(=O)O [ampicillin],growth / resistance of ΔfloA compared to WT in presence of β-lactam antibiotic,MRSA ΔfloA mutant [2],comparable resistance
CC(C)c1c(C(=O)Nc2ccccc2)c(-c2ccccc2)c(-c2ccc(F)cc2)n1CC[C@@H](O)C[C@@H](O)CC(=O)O [atorvastatin],MRSA growth (CFU/ml) with oxacillin plus compound,[1],did not alter the MRSA antibiotic-resistant phenotype
Cc1onc(-c2c(Cl)cccc2Cl)c1C(=O)N[C@@H]1C(=O)N2[C@@H]1SC(C)(C)[C@@H]2C(=O)O [dicloxacillin],growth / resistance of ΔfloA compared to WT in presence of β-lactam antibiotic,MRSA ΔfloA mutant [2],severe growth inhibition
Cc1onc(-c2c(F)cccc2Cl)c1C(=O)N[C@@H]1C(=O)N2[C@@H]1SC(C)(C)[C@@H]2C(=O)O [flucoxacillin],growth / resistance of ΔfloA compared to WT in presence of β-lactam antibiotic,MRSA ΔfloA mutant [2],severe growth inhibition
COc1cccc(OC)c1C(=O)N[C@@H]1C(=O)N2[C@@H]1SC(C)(C)[C@@H]2C(=O)O [methicillin],growth / resistance of ΔfloA compared to WT in presence of β-lactam antibiotic,MRSA ΔfloA mutant [2],severe growth inhibition
CCOc1ccc2ccccc2c1C(=O)N[C@@H]1C(=O)N2[C@@H]1SC(C)(C)[C@@H]2C(=O)O [nafcillin],growth / resistance of ΔfloA compared to WT in presence of β-lactam antibiotic,MRSA ΔfloA mutant [2],severe growth inhibition
Cc1onc(-c2ccccc2)c1C(=O)N[C@@H]1C(=O)N2[C@@H]1SC(C)(C)[C@@H]2C(=O)O [oxacillin],growth / resistance of ΔfloA compared to WT in presence of β-lactam antibiotic,MRSA ΔfloA mutant [2],severe growth inhibition
same,survival rate,MRSA ΔfloA mutant [3],70%
same,survival rate,MRSA WT strain,10%
CCC(C)CCCCCCCCCCC(=O)OC[C@H]1O[C@@H](OC(=O)/C(C)=C/C=C/C(C)=C/C=C/C(C)=C/C=C/C=C(C)/C=C/C=C(\C)CCC=C(C)C)[C@H](O)[C@@H](O)[C@@H]1O (stereo partly drawn) [staphyloxanthin],Kd,ΔMAR flotillin variant [4],12 nM
same,Kd,ΔEA4 flotillin variant [5],9.43 nM
same,Kd,ΔPHB flotillin variant [6],943 nM
same,lipid-protein interaction in flotation assay,FloA (WT flotillin),interacted strongly
same,lipid-protein interaction in flotation assay,ΔMAR flotillin variant [7],interacted strongly
same,lipid-protein interaction in flotation assay,ΔEA4 flotillin variant [8],interacted strongly
same,lipid-protein interaction in flotation assay,ΔPHB flotillin variant [9],showed no tendency to interact
